Entries after “also recorded” stand apart in the source; their conditions may differ. [FluoU] = uridine (ribose) carrying fluorescein on the base; {invT} = 3'-3' inverted thymidine; m = 2'-O-methyl; r = 2'-OH (RNA)
How the values were obtained:
THX-cells [1] = assay: Transfection efficiency after PCI with different doses of AlPcS2a (Example 20); format: cell-based, human; details: 5 or 40 μg/ml AlPcS2a, pEGFP-N1-polylysine complex, 2 or 4 min light
Experimental: FIG. 21 illustrates transfection efficiency after PCI with different doses of AlPcS2a. Cells were treated with different doses of the photosensitizer, transfected with a plasmid DNA-polylysine complex and analysed by flow cytometry as described in the text of Example 20. the white bars represent an AlPcS2a dose of 5 μg/ml, while the black bars represent 40 μg/ml.
THX-cells were seeded out into 6 well plates (60 000 cells per well). After overnight incubation AlPcS2a in concentrations of 5 μg/ml or 40 μg/ml was added, and the cells were incubated for 18 h at 37° C. The cells were then washed 3 times with culture medium and transfected with pEGFP-N1-polylysine complex (amount of plasmid 5 μg/ml, charge ratio 1.2, see Example 17) for 6 h. The transfected cells were washed once with medium, and after addition of 2 ml of culture medium the cells were exposed to red light (Phillips TL 20 W/09, filtered through a Cinemoid 35 filter) for 2 or 4 min (control cells were not exposed to the light) and incubated further at 37° C. for 40 hrs before flow cytometry analysis (see Example 17).

V79 cells = assay: Protein synthesis after photosensitizer and light with or without gelonin; format: cell-based, Chinese hamster; details: 25 μg/ml AlPcS2a
Experimental: FIG. 5 illustrates protein synthesis in V79 cells after treatment with 25 μg/ml AlPcS2 and light in the absence and presence of 1 μg/ml gelonin. Symbols: ● Photosensitizer+toxin; ◯ photosensitizer.
(§1) The intracellular location of the photosensitizers are lysosomal (TPPS4, TPPS2a, AlPcS2a) and extralysosomal (3-THPP). The following abbreviations are used: AlPcS2a for aluminum phtalocyanine with 2 sulfonate groups on adjacent phenyl rings; TPPS4 for meso-tetraphenylporphine with 4 sulfonate groups; TPPS2a for meso-tetraphenylporphine with 2 sulfonate groups on adjacent phenyl rings; 3-THPP for tetrahydroxylphenyl porphine. The cell lines used were carcinoma cells in situ from human cervix (NHIK 3025), Chinese hamster lung fibroblasts (V79), SV40-transformed African Green monkey kidney (CV1-simian fibroblasts-like cells) (Cos-7) human osteosarcoma cells (OHS) and small cell lung cancer cells (H146). All experiments were designed as in Example 1.
This example relates to use of the photosensitizer AlPcS2a in V79 cells with or without gelonin as the toxin (FIG. 5). […] (Moan, J., Berg, K., Anholt, H. and Madslien, K. (1994). Sulfonated aluminum phtalocyanines as sensitizers for photochemotherapy. Effects of small light doses on localization, dye fluorescence and photosensitivity in V79 cells. Int. J. Cancer 58: 865-870.)

COS-7 cells = assay: Protein synthesis after TPPS2a and light with or without gelonin; format: cell-based, African Green monkey; details: 3 μg/ml TPPS2a, 1 μg/ml gelonin
Experimental: FIG. 11 illustrates protein synthesis in COS-7 cells after treatment with 3 μg/ml TPPS2a and light in the absence and presence of 1 μg/ml gelonin. Symbols as in FIG. 5.
as §1

OHS cells = assay: as above; format: cell-based, human; details: 3 μg/ml TPPS2a, 3 μg/ml gelonin, 50 μM chloroquine or 10 mM NH4Cl
Experimental: FIG. 13 illustrates protein synthesis in OHS cells after treatment with 3 μg/ml TPPS2a for 18 hours followed by 4 hours in the absence of TPPS2a and in the absence or presence of 3 μg/ml gelonin before exposure to light. The cells were incubated for the same 4 hours in 50 μM chloroquine or 10 mM NH4Cl to inhibit lysosomal protein degradation.
as §1
(FIG. 13). In this cell line there is a considerable protein degradation in the lysosomes, which in the present example is inhibited by incubating the cells for 4 hours in either 50 μM chloroquine or 10 mM NH4Cl.

NHIK 3025 cells [2] = assay: Protein synthesis (3[H]leucine incorporation) after photosensitizer, toxin and light; format: cell-based, human
Experimental: FIG. 2 illustrates protein synthesis in NHIK 3025 cells after treatment with gelonin in the absence or presence of TPPS2a and 50 sec light exposure. Symbols: ◯, TPPS2a+light; ●, −TPPS2a−light; ∇, +TPPS2a−light; ▾, −TPPS2a+light. […] Protein synthesis was measured by measuring incorporation of ^3[H]leucine into proteins, 24 hours after light exposure.
(§2) NHIK 3025 cells were incubated with TPPS2a (Formula I) and gelonin, separately or together for 18 hours, followed by 1 hour in TPPS2a and gelonin-free medium before the cells were exposed to light. Protein synthesis was measured 24 hours after exposure to light. The photodynamic treatment, which kills 10-20% of the cells alone, reduced the protein synthesis by 30-40% (FIG. 2).
as §1

H146 cells = assay: Protein synthesis after TPPS2a and light with or without gelonin; format: cell-based; details: 0.3 μg/ml TPPS2a, 1 μg/ml gelonin
Experimental: FIG. 6 illustrates protein synthesis in H146 cells after treatment with 0.3 μg/ml TPPS2a and light in the absence and presence of 1 μg/ml gelonin. Symbols as in FIG. 5.
as §1
(FIG. 6). TPPS2a is known to be lysosomally located in the cell. […]

NHIK 3025 cells [3] = assay: Cell killing / clonogenic survival after TPPS2a, gelonin and light; format: cell-based, human
Experimental: as §2
NHIK 3025 cells were incubated with TPPS2a and gelonin according to the design of Example 1.
Clonogenic survival of the cells was measured 24 hours after exposure to light. […] This is in accordance with prior art regarding killing unwanted cells with PDT. […] Increased concentration of added gelonin leads to more gelonin in the cytosol, as indicated by an increased sensitivity of the cells to photoactivation.

THX human melanoma cells = assay: PCI relocalization of fluorescein-labeled ribozyme (fluorescence microscopy); format: cell-based
Experimental: FIG. 14 illustrates subcellular localization of a fluorescein-ribozyme (5.5 μM) and AlPcS2a (20 μg/ml) in THX cells after 18 h incubation followed by 1 h wash. The Figure illustrates localization without light exposure (A) and after 10 min red light exposure followed by 40 min incubation in the dark (B). (Magnification 40×2.5).
The ribozyme employed in this example was a 37-mer synthetic 2′-O-methylated ribozyme designed against mRNA of the metastasis associated protein capl. The sequence (SEQ ID NO:1) was as follows:
5′-UAGUUCUCU GAUGAGGCCGNUAGGCCGAAA CUUGUU Y-3′, (SEQ ID NO: 1) where N is bases with 2′-O-methylated ribose, Y is uridine with a 3′-3′ inverted thymidine at the 3′ end, N is fluorescein attached to uracil.
To study the intracellular localization of the photosensitizer AlPcS2a and the ribozyme, THX human melanoma cells were plated on 16 well Lab-Tek (Nunc Inc.) chamber slides (3000 cells well^−1). After 18 h the culture medium was replaced with fresh RPMI medium supplemented with 10% fetal calf serum (FCS, Integro b.v., Holland) and containing […] AlPcS2a and […] ribozyme. […]
Control cells were observed without irradiation. […] Phase-contrast and fluorescence micrographs were recorded by means of a cooled charge-coupled device (CCD) camera (Astromed 3200, Cambridge, England).

lysosomal cathepsin = assay: Inhibition of lysosomal cathepsin by photodynamic action; format: cell-based, human; details: culture of NHIK 3025 cells
Source text: This was a surprising effect of the present invention and assists in maintaining the viability and functionality of the cells after transporting molecules into cytosol by disrupting endosomal/lysosomal membranes.

THX-cells [4] = assay: PCI-induced transfection of TPPS2a-treated THX-cells (Example 23); format: cell-based, human; details: 2 μg/ml TPPS2a, blue light 30-150 s, pEGFP-N1-polylysine complex
Experimental: FIG. 24 illustrates PCI induced transfection of TPPS2a-treated THX-cells. Cells were treated with TPPS2a and transfected with a complex of plasmid DNA and polylysine as described in the text of Example 23. After light treatment the cells were analysed by flow cytometry. The white circle represents the total population of living cells, the black sector represents the fraction of cells that was positive for GFP-expression. Light exposure times are indicated on the Figure.
A pEGFP-N1-polylysine complex (5 μg DNA, charge ratio 1.2 was prepared as described above (see Example 17).
THX-cells were seeded out into 6 well plates (60 000 cells per well). After overnight incubation 2 μg/ml of the photosensitizer TPPS2a was added and the cells were incubated further for 18 h at 37° C. The cells were then washed 3 times with culture medium and transfected with the pEGFP-N1-polylysine complex for 6 h. The transfected cells were washed once with medium, and after addition of 2 ml of culture medium the cells were exposed to blue light (Appl. Photophysics, Nood. 3026, London) for 30, 60, 90, 120 or 150 s (control cells were not exposed to the light) and incubated further at 37° C. After 2 days the cells were seeded out into bigger 3004 dishes and incubated further so that the total incubation time before flow cytometry analysis was 108 h.

## aluminum phtalocyanine with 2 sulfonate groups on adjacent phenyl rings [AlPcS2a, reference compound]
THX-cells [1]
  percentage of transfected cells versus photosensitizer concentration: increased with increasing photosensitizer concentration
V79 cells; selected light dose
  protein synthesis with photosensitizer and light, without toxin: small reduction in protein synthesis

## gelonin
COS-7 cells
  transport of toxin into cells by TPPS2a and light: demonstrates the transport of gelonin into COS-7 cells
OHS cells
  transport of toxin into cells by TPPS2a and light: demonstrates the transport of gelonin into OHS cells
NHIK 3025 cells [2]; 3.2 μg/ml TPPS2a, 50 sec light, measured 24 hours after light
  IC50 of gelonin for inhibition of protein synthesis when combining PDT and gelonin: 0.2 µg/mL
NHIK 3025 cells [2]; 75 μg/ml TPPS4, 50 sec light, different gelonin concentrations
  transport of gelonin into cells with TPPS4 and light: demonstrates transport of gelonin into NHIK 3025 cells
NHIK 3025 cells [2]; gelonin alone with light, or TPPS4 and gelonin without light
  transport of gelonin into cells in controls: no transport of gelonin into the cells was obtained
NHIK 3025 cells [2]; gelonin alone, presence or absence of light, no PDT
  effect of gelonin alone on protein synthesis: inhibits protein synthesis to some extent
V79 cells; 1 μg/ml gelonin
  protein synthesis with photosensitizer, light and gelonin: profoundly reduced
H146 cells
  transport of toxin into cells by TPPS2a and light: transport of the toxin gelonin into H146 cells without essentially affecting the viability of the cells
NHIK 3025 cells [3]; 0.2 or 2.0 μg/ml gelonin
  clonogenic survival when gelonin is added to TPPS2a and light: the survival rate drops

## ribozyme: 37-mer synthetic 2′-O-methylated fluorescein-labeled ribozyme designed against mRNA of the metastasis associated protein capl (SEQ ID NO:1) (UAGUUCUCUGAUGAGGCCGUUAGGCCGAAACUUGUUY; sugars from the 5' end mmmmmmmmmrrmrrrrmmrrrrrrmmrrrrmmmmmmr, [FluoU] at 20, 3' {invT}, backbone and the base at N not given here)
THX human melanoma cells; 5.5 μM ribozyme, 20 μg/ml AlPcS2a, 18 h, no light
  subcellular localization, nonirradiated cells: mainly localized in intracellular granules
THX human melanoma cells; 10 min red light, then 40 min
  subcellular localization after light exposure: most of the ribozyme fluorescence was present in the cytosol

## O=S(=O)(O)c1ccc(-c2c3nc(c(-c4ccc(S(=O)(=O)O)cc4)c4ccc([nH]4)c(-c4ccccc4)c4nc(c(-c5ccccc5)c5ccc2[nH]5)C=C4)C=C3)cc1 [TPPS2a, meso-tetraphenylporphine with 2 sulfonate groups on adjacent phenyl rings]
Lysosomal cathepsin
  inhibition of lysosomal cathepsin by photodynamic action: substantially inhibited
NHIK 3025 cells [2]; TPPS2a and light, no gelonin, 24 hours after light
  reduction of protein synthesis by the photodynamic treatment alone: 30-40%
NHIK 3025 cells [3]; TPPS2a and light, no gelonin
  cells killed by the photodynamic treatment alone: 10-20%
NHIK 3025 cells [3]; light exposure increased, 24 hours after light
  clonogenic survival with TPPS2a and light: virtually all cells were killed
THX-cells [4]
  transfection-enhancing effect of PCI light treatment with TPPS2a as photosensitizer: substantial transfection-enhancing effect; also recorded: essentially the same as for AIPcS2a

## Oc1cccc(-c2c3nc(c(-c4cccc(O)c4)c4ccc([nH]4)c(-c4cccc(O)c4)c4nc(c(-c5cccc(O)c5)c5ccc2[nH]5)C=C4)C=C3)c1 [3-THPP, tetrahydroxylphenyl porphine, reference compound]
NHIK 3025 cells [2]; 0.25 μg/ml 3-THPP, light, 1 μg/ml gelonin, comparative example
  difference in protein synthesis effect with or without gelonin: no significant difference

## saporin
NHIK 3025 cells [2]; 3.2 μg/ml TPPS2a, 1 μg/ml toxin
  transport of toxin into cells by TPPS2a and light: demonstrates transport of the toxin saporin into NHIK 3025 cells

— US6680301B2, “Transfer of molecules into the cytosol of cells” (Photocure AS, priority 1994, dated 2004)
